The subject of one experiment is gel-filtered platelets. Put plainly: In vitro inhibition of thrombin-induced gel-filtered platelet aggregation. Format: cell-based. The settings on record: human gel-filtered platelets, agonist thrombin 50 μL of 1 unit/mL, read-out: Thrmb IC50 (Thrombin-induced aggregation of gel-filtered platelets). On the procedure:
In Vitro Inhibition of Thrombin-Induced Gel-Filtered Platelet Aggregation Assay
The percentage of platelet aggregation is calculated as an increase in light transmission of compound-treated platelet concentrate vs. control-treated platelet concentrate. Human blood is obtained from drug free, normal donors in tubes containing 0.13M sodium citrate. Platelet rich plasma (PRP) is collected by centrifugation of whole blood at 200×g for 10 min at 25° C. The PRP (5 mL) is gel filtered through Sepharose 2B (bed volume 50 mL), and the platelet count is adjusted to 2×10^7 platelets per sample. The following constituents are added to a siliconized cuvette: concentrated platelet filtrate and Tyrode's buffer (0.14M NaCl, 0.0027M KCl, 0.012M NaHCO3, 0.76 mM Na2HPO4, 0.0055M glucose, 2 mg/mL BSA and 5.0 mM HEPES @ pH 7.4) in an amount equal to 350 μL 50 μL of 20 mM calcium and 50 μL of the test compound. Aggregation is monitored in a BIODATA aggregometer for the 3 min following the addition of agonist (thrombin 50 μL of 1 unit/mL).
(§1) Table 7 contains IC50 values (μM) of the compounds in a thrombin receptor binding assay, and IC50 values (μM) against platelet aggregation stimulated by thrombin.

Experiment [1] has as its target T1, thrombin receptor (PAR-1) (Homo sapiens, UniProt P25116).
T1 construct: CHRF membranes (Jones, Biochim. Biophys. Acta 1992, 1136, 272) are thawed from −70° C; endogenous in cells; host or cells: CHRF cell membranes
T1 sequence (P25116 22-425): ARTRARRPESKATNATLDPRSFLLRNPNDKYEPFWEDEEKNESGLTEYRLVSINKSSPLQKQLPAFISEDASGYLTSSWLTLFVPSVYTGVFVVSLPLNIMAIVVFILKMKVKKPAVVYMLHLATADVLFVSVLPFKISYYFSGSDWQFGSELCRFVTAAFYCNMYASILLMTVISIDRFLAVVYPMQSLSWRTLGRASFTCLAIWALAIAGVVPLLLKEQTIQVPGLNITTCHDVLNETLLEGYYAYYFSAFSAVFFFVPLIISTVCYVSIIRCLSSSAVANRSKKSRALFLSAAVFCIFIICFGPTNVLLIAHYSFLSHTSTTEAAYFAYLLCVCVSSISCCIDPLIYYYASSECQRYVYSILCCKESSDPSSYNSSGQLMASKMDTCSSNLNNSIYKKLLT
The experiment is described as follows: In vitro thrombin receptor binding assay (CHRF membranes). The settings on record: tritiated 721-40 radioligand, read-out: Bndg IC50 (Thrombin receptor binding). Here is the method:
In Vitro Thrombin Receptor Binding Assay
CHRF membranes (Jones, Biochim. Biophys. Acta 1992, 1136, 272) are thawed from −70° C., centrifuged at maximum speed for 5 min, washed twice with binding buffer (50 mM HEPES containing 5 mM MgCl2 and 0.1% BSA), and re-suspended in binding buffer (25 μg/[…]). 100 μL of membranes are added to the 24-Wallac plates and delivered to the Tomtech apparatus. In a typical experiment, 6 μL of samples (from a 125 μg/mL intermediary plate, 20% DMSO) and 44 μL buffer are delivered to the plates (final conc. of compounds is 3.7 μg/mL, 0.6% DMSO). Similarly, 6 μL 20% DMSO and 44 μL buffer are delivered to both column 1 (NSB) and column 12 (TB). 10 μL Ser-pFPhe-Har-Leu-Har-Lys-Tyr-NH2 (721–40; 500 μM in deionized water) is added to column 1. 50 μL tritiated 721–40 (specific activity 46 Ci/mmol) is added to all the wells. The plates are mixed well for 20 seconds, incubated for 30 min,and then harvested with 10 mM HEPES/138 mM NaCl using the Skatron harvester. The filters (GF/C Brandel FPXLR 296) are presoaked 3 h in 0.5% polyethylenimine in HEPES/0.1M N-acetylglucosamine) are set in saran wrap and dried for 3 min in the microwave, and placed in sample bags (Wallac 1450-432). 4.5 mL scintillation fluid (Wallac, Betaplate Scint 1205-440) is added. The bags are sealed, placed in filter cassettes (Wallac 1450-104), and analyzed on the microbeta counter.
as §1

Molecules are shown by their SMILES. pIC50: −log10 of the molar value. Where two headings read alike, the source gives them in different places.

As a reminder, the pIC50 is the IC50 on a negative log10 scale, so that one unit is a factor of ten. As to `N=C(N)NCCC[C@H](NC(=O)[C@H](Cc1ccc(F)c(F)c1)NC(=O)Nc1ccc2c(CN3CCCC3)cn(Cc3ccccc3Cl)c2c1)C(=O)NCc1ccccc1` [Compound 55], the pIC50 with gel-filtered platelets (Platelet) is 6.47; in experiment [1] it was 4.95.
As for `N=C(N)NCCC[C@H](NC(=O)[C@@H](NC(=O)Nc1ccc2c(CN3CCCC3)cn(Cc3c(Cl)cccc3Cl)c2c1)C(c1ccccc1)c1ccccc1)C(=O)NCc1ccccc1` [Compound 56], the pIC50 in the experiment with gel-filtered platelets (Platelet) is 5.42; in experiment [1], 4.94.
In the case of `Cc1ccccc1Cn1cc(CN2CCCC2)c2ccc(NC(=O)N[C@@H](Cc3ccc(F)c(F)c3)C(=O)N[C@@H](CCCNC(=N)N)C(=O)NCCc3ccccc3)cc21` [Compound 57], the pIC50 is 5.74 with gel-filtered platelets (Platelet) and 6.52 in experiment [1].
In the same order, the values of `CCCCN(CCCC)Cc1cn(Cc2ccccc2C)c2cc(NC(=O)N[C@@H](Cc3cc(F)cc(F)c3)C(=O)N[C@@H](CCCNC(=N)N)C(=O)NCc3ccccc3)ccc12` [Compound 58] are under 5.00 and 5.82.
For `N=C(N)NCCC[C@H](NC(=O)[C@H](Cc1ccc(F)c(F)c1)NC(=O)Nc1ccc2c(CN3CCCC3)cn(Cc3c(Cl)cccc3Cl)c2c1)C(=O)NCc1ccc(F)cc1` [Compound 59] the same measures were 6.06 and 6.85.
Take `N=C(N)NCCC[C@H](NC(=O)[C@H](Cc1ccc(F)c(F)c1)NC(=O)Nc1ccc2c(CN3CCCC3)cn(Cc3ccc(F)cc3)c2c1)C(=O)NC(c1ccccc1)c1ccccc1` [Compound 60]: the figures for the pIC50 (in the experiment on gel-filtered platelets (Platelet); in experiment [1]) were 6.03 and 5.55, respectively.
For `COc1ccc(CNC(=O)[C@H](CCCNC(=N)N)NC(=O)[C@H](Cc2ccc(F)c(F)c2)NC(=O)Nc2ccc3c(CN4CCCC4)cn(Cc4c(Cl)cccc4Cl)c3c2)cc1` [Compound 61] the same measures were 5.85 and 6.52.
For `N=C(N)NCCC[C@H](NC(=O)[C@H](Cc1ccc(F)c(F)c1)NC(=O)Nc1ccc2c(CN3CCCC3)cn(Cc3c(Cl)cccc3Cl)c2c1)C(=O)NCc1ccncc1` [Compound 62], the values for the pIC50 (in the experiment with gel-filtered platelets (Platelet); in experiment [1]) were 5.90 and 7.52, respectively.
For `N=C(N)NCCC[C@H](NC(=O)[C@H](Cc1ccc(Br)cc1)NC(=O)Nc1ccc2c(CN3CCCCC3)cn(Cc3c(Cl)cccc3Cl)c2c1)C(=O)NCc1ccccc1` [Compound 63] the same measures were 6.15 and 6.89.
For `Cc1ccccc1Cn1cc(CN2CCCC2)c2ccc(NC(=O)N[C@@H](Cc3ccc(F)c(F)c3)C(=O)N[C@@H](CCCNC(=N)N)C(=O)NCCc3ccccc3Cl)cc21` [Compound 64] the same measures were 5.66 and 6.64.
For `COc1ccccc1CCNC(=O)[C@H](CCCNC(=N)N)NC(=O)[C@H](Cc1ccc(F)c(F)c1)NC(=O)Nc1ccc2c(CN3CCCC3)cn(Cc3ccccc3C)c2c1` [Compound 65] the same measures were 6.00 and 6.66.
For the compound `NCCC[C@H](NC(=O)[C@H](Cc1ccc(F)c(F)c1)NC(=O)Nc1ccc2c(CN3CCCC3)cn(Cc3c(Cl)cccc3Cl)c2c1)C(=O)NCc1ccccc1` [Compound 66], the figures for the pIC50 (with gel-filtered platelets (Platelet); in experiment [1]) were 6.62 and 5.96, respectively.
In the same order, the values of `CC(C)NCCCC[C@H](NC(=O)[C@H](Cc1ccc(F)c(F)c1)NC(=O)Nc1ccc2c(CN3CCCCC3)cn(Cc3c(Cl)cccc3Cl)c2c1)C(=O)NCc1ccccc1` [Compound 67] are 6.38 and 6.35.
Consider `O=C(Nc1ccc2c(CN3CCCC3)cn(Cc3c(Cl)cccc3Cl)c2c1)N[C@@H](Cc1ccc(F)c(F)c1)C(=O)N[C@@H](CCCCNC(=O)c1cccnc1)C(=O)NCc1ccccc1` [Compound 68], for which the pIC50 with gel-filtered platelets (Platelet) is 5.33; in experiment [1] it was 5.19.
Take `N=C(N)NCCC[C@@H](NC(=O)[C@H](Cc1ccc(F)c(F)c1)NC(=O)Nc1ccc2c(CN3CCCC3)cn(Cc3c(Cl)cccc3Cl)c2c1)C(=O)NCc1ccccc1` [Compound 69]: the values for the pIC50 (in the experiment on gel-filtered platelets; in experiment [1]) were 6.51 and 6.21, respectively.
As for `NCCCC[C@H](NC(=O)[C@H](Cc1ccc(F)c(F)c1)NC(=O)Nc1ccc2c(CN3CCCC3)cn(Cc3c(Cl)cccc3Cl)c2c1)C(=O)NCc1ccccc1` [Compound 70], the pIC50 was 6.51 in the experiment with gel-filtered platelets (Platelet) and 6.49 in experiment [1].
For `CC(=O)NCCCC[C@H](NC(=O)[C@H](Cc1ccc(F)c(F)c1)NC(=O)Nc1ccc2c(CN3CCCC3)cn(Cc3c(Cl)cccc3Cl)c2c1)C(=O)NCc1ccccc1` [Compound 71] the same measures were 6.26 and 5.52.
Consider `O=C(Nc1ccc2c(CN3CCCC3)cn(Cc3c(Cl)cccc3Cl)c2c1)N[C@@H](Cc1ccc(F)c(F)c1)C(=O)N[C@@H](Cc1c[nH]cn1)C(=O)NCc1ccccc1` [Compound 72], for which the negative-log IC50 (pIC50) with gel-filtered platelets (Platelet) is 6.34; in experiment [1], 5.89.
For `CCCCCCCCNC(=O)[C@H](CCCNC(=N)N)NC(=O)[C@H](Cc1ccc(F)c(F)c1)NC(=O)Nc1ccc2c(CN3CCCCC3)cn(Cc3ccc(F)cc3)c2c1` [Compound 73] the same measures were 5.62 and 5.12.
For `N=C(N)NCCC[C@H](NC(=O)[C@H](Cc1ccc(F)c(F)c1)NC(=O)Nc1ccc2c(CN3CCCC3)cn(CC3CCCCC3)c2c1)C(=O)NCc1ccccc1` [Compound 74] the same measures were 5.54 and 6.25.
In the same order, the values of `CCN(CC)Cc1cn(CCCc2ccccc2)c2cc(NC(=O)N[C@@H](Cc3ccc(F)c(F)c3)C(=O)N[C@@H](CCCNC(=N)N)C(=O)NCc3ccccc3)ccc12` [Compound 75] are 5.66 and 6.64.
As for `CCN(CC)Cc1cn(CCc2ccc(F)cc2)c2cc(NC(=O)N[C@@H](Cc3ccc(F)c(F)c3)C(=O)N[C@@H](CCCNC(=N)N)C(=O)NCc3ccccc3)ccc12` [Compound 76], the pIC50 in the experiment on gel-filtered platelets (Platelet) is 5.96; in experiment [1], 6.70.
In the same order, the values of `NC(=O)NCCC[C@H](NC(=O)[C@H](Cc1cccc(F)c1)NC(=O)Nc1ccc2c(CN3CCCC3)cn(Cc3c(Cl)cccc3Cl)c2c1)C(=O)NCc1ccccc1` [Compound 77] are 4.53 and 6.21.
In the same order, the values of `NCC[C@H](NC(=O)[C@H](Cc1ccc(Cl)cc1)NC(=O)Nc1ccc2c(CN3CCCC3)cn(Cc3c(Cl)cccc3Cl)c2c1)C(=O)NCc1ccccc1` [Compound 78] are 5.89 and 5.82.
For `NC[C@H](NC(=O)[C@H](Cc1ccc(Cl)cc1)NC(=O)Nc1ccc2c(CN3CCCC3)cn(Cc3c(Cl)cccc3Cl)c2c1)C(=O)NCc1ccccc1` [Compound 79] the same measures were 5.89 and 6.77.
For `N=C(N)NCCC[C@H](NC(=O)Nc1ccc2c(CN3CCCC3)cn(Cc3c(Cl)cccc3Cl)c2c1)C(=O)N[C@@H](Cc1ccc(F)c(F)c1)C(=O)NCc1ccccc1` [Compound 80], the pIC50 in the experiment with gel-filtered platelets (Platelet) was 4.95; in experiment [1] it was 5.23.
In the same order, the values of `N=C(N)NCCC[C@H](NC(=O)[C@H](Cc1ccc(F)c(F)c1)NC(=O)Nc1ccc2c(CN3CCCC3)cn(Cc3c(Cl)cccc3Cl)c2c1)C(=O)NCCCCCN` [Compound 81] are 6.39 and 7.15.
For `NC(N)=NCCC[C@H](NC(=O)[C@H](Cc1ccc(F)c(F)c1)NC(=O)Nc1ccc2c(CN3CCCC3)cn(Cc3ccc(F)cc3)c2c1)C(=O)NCc1ccco1` [Compound 82] the same measures were 5.82 and 6.51.

The values are drawn from patent US7183252B2, “Indole peptidomimetics as thrombin receptor antagonists” (Ortho-McNeil Pharmaceutical, Inc., priority 1999, dated 2007).
